Here are results for two compounds from PMC8667948, “Mechanism of biotin carboxylase inhibition by ethyl 4-[[2-chloro-5-(phenylcarbamoyl)phenyl]sulphonylamino]benzoate” (Journal of Enzyme Inhibition and Medicinal Chemistry, 2021).

One assay concerns BC. Further details: method as in PMID 4922289. The settings on record: % activity of biotin; cited from earlier work.
The target in assay [1] is T1, biotin carboxylase (BC) (Escherichia coli, UniProt P24182).
T1 construct: His tag (N); made in house
Kind of assay: Biotin carboxylase inhibition assay, ATP or biotin varied (pyruvate kinase/lactic dehydrogenase coupled). In kind it is biochemical. The conditions noted are these: SABA1 0, 75, 150 µM. As to the method: (§1) For inhibition studies that varied ATP or biotin, initial velocities were measured as previously reported. In brief, pyruvate kinase and lactic dehydrogenase were used to couple ADP production to NADH oxidation, which can be measured spectrophotometrically at 340 nm. For inhibition studies varying ADP, activity was determined by following the production of inorganic phosphate (Pi) using the EnzChek® Phosphate Assay Kit (Molecular Probes) according to the manufacturer’s protocol. In brief, purine nucleoside phosphorylase converts 2-amino-6-mercapto-7-methylpurine riboside to ribose 1-phosphate and 2-amino-6-mercapto-7-methylpurine in the presence of Pi. This reaction is monitored at […][32]. Kinetic data were collected on a Cary60 UV-Vis spectrophotometer (Agilent Technologies)
To determine the inhibition pattern versus ATP, ATP was varied from 0.05 mM to 1.0 mM. SABA1 was held at fixed concentrations of 0.0 µM, 75 µM, or 150 µM. Biotin was held constant at 40 mM. […]
Data for inhibition studies varying ATP or biotin were analysed by nonlinear regression using the programs of Cleland[33]. Competitive inhibition data were fitted to Equation (1) where v is the experimentally determined velocity, V is maximal velocity, A is substrate concentration, Km is the Michaelis constant, I is inhibitor concentration and Kis is the inhibition constant for the slope. […]

Assay [2] deals with T1, biotin carboxylase (BC). Put plainly: Biotin carboxylase inhibition versus ADP (EnzChek Pi assay). The conditions noted are these: ADP varied 0.19-19 µM; ATP 0.6 mM; biotin 40 mM; SABA1 100 µM; fit to Equation (5). The class given is biochemical. As for the experimental part: as §1
To determine the inhibition pattern versus ADP using the Pi assay, ADP was varied from 0.19 µM to 19 µM. ATP was held constant at 0.6 mM, biotin was held constant 40 mM, and SABA1 was held constant at 100 µM. Each reaction cocktail was incubated in the presence or absence of SABA1 for 10 min. The reaction was started by addition of biotin.
Data for inhibition studies varying ADP were analysed by nonlinear regression using the program Enzfitter[34]. […]

Assay [3] addresses T1, biotin carboxylase (BC). Kind of assay: Multiple inhibition assay (Yonetani-Theorell) on BC. In kind it is biochemical. The conditions noted are these: aminooxazole varied 0.2-3.2 µM at fixed SABA1 0, 75, 150 µM; ATP 0.2 mM, biotin 40 mM; intersecting pattern. As for the experimental part: To determine the multiple inhibition pattern with respect to ATP, aminooxazole was varied from 0.2 µM to 3.2 µM. SABA1 was held at fixed concentrations of 0.0 µM, 75 µM, or 150 µM. ATP and biotin were held constant at 0.2 mM and 40 mM, respectively. To determine the multiple inhibition pattern with respect to biotin, desthiobiotin was varied from 1.0 mM to 20 mM. SABA1 was held at fixed concentrations of 0.0 µM, 75 µM, or 150 µM. ATP and biotin were held constant at 0.2 mM and 40 mM, respectively.
Multiple inhibition data were fitted to Equation (3) where v is the experimentally determined velocity, V is maximal velocity, L and J are the concentration of the two inhibitors, KL and KJ are the apparent inhibition constants of those respective inhibitors, and α is the interaction factor of the two inhibitors. (3) v=V/1+L/KL+J/KJ+LJ/αKLKJ
Competitive inhibition means that binding of the inhibitor and the substrate to the enzyme are mutually exclusive. […] To determine if SABA1 can bind in the ATP binding site, biotin binding site or both, multiple inhibition analysis was performed as described by Yonetani and Theorell[42]. Multiple inhibition analysis is used to define the topological relationship between two different enzyme inhibitors. Initial velocities are measured while one inhibitor is varied against fixed increasing concentrations of the second inhibitor. […]

The target of assay [4] is T2, Acetyl-CoA carboxylase (ACC) (Escherichia coli, UniProt P24182).
T2 construct: His tag (N); made in house
Kind of assay: ACC assay, ATP varied (BC:BCCP:CT 1:2:1). The conditions noted are these: ATP varied 1.0-16 µM, acetyl-CoA 0.20 mM, SABA1 0, 50, 100 µM. The class given is biochemical. As to the method: As stated above, the components of ACC were purified separately. Purified BC, BCCP, and CT were combined in a 1:2:1 molar ratio and allowed to equilibrate for 1 h prior to assaying ACC. To determine the inhibition pattern versus ATP, ATP was varied from 1.0 µM to 16 µM. SABA1 was held at fixed concentrations of 0.0 µM, 50 µM, or 100 µM. Acetyl-CoA was held constant at 0.20 mM. The reaction was started by the addition of enzyme.
Non-competitive inhibition data were fitted to Equation (2) where v is the experimentally determined velocity, V is maximal velocity, A is substrate concentration, Km is the Michaelis constant, I is inhibitor concentration and Kii is the inhibition constant for the intercept and Kis is the inhibition constant for the slope. (2) v=VA/Km(1+I/Kis)+A(1+I/Kii)

Assay [5] concerns efflux compromised E. coli (ΔtolC::tet). The settings on record: cited from earlier work.
The subject of assay [6] is efflux compromised P. aeruginosa strain PAO397. Further details: method as in PMID 26169404. The settings on record: cited from earlier work.
Another assay deals with E. coli ACC. Further details: method as in PMID 26169404. The conditions noted are these: cited from earlier work.

The structures appear in SMILES notation. Read-outs that look alike come from different tables or passages of the source.

Turning to `C[C@@H]1NC(=O)N[C@@H]1CCCCCC(=O)O` [Desthiobiotin], the “activity as slow alternate substrate, relative to biotin” value in the assay on BC was 0.2%.

Take `CCOC(=O)c1ccc(NS(=O)(=O)c2cc(C(=O)Nc3ccccc3)ccc2Cl)cc1` [SABA1, ethyl 4-[[2-chloro-5-(phenylcarbamoyl)phenyl]sulfonylamino]benzoate]: the Ki at biotin carboxylase (BC) [1] (ATP varied 0.05-1.0 mM, biotin constant 40 mM (subsaturating), read-out: Kis, competitive inhibition versus ATP) is 242 ± 32 µM; at biotin carboxylase (BC) [1] (biotin varied 20-200 mM, ATP constant 0.2 mM (subsaturating), read-out: Kis, competitive inhibition versus biotin), 142 ± 12.3 µM; in assay [4] (read-out: Kii, non-competitive inhibition versus ATP), 23.3 ± 4.4 µM; in assay [4] (read-out: Kis, non-competitive inhibition versus ATP), 96.3 ± 31.6 µM. Moreover, the “Ki, uncompetitive inhibition versus ADP” value at biotin carboxylase (BC) [2] stood at 10.3 ± 0.1 µM. At biotin carboxylase (BC) [3], the “α value (interaction factor of the two inhibitors)” value worked out at 0.6. In addition, in assay [5], the MIC was 0.45 to 0.9 µM. The “prolongs the doubling time” value in assay [6] is 30%. In the assay with E. coli ACC, the IC50 was 4 µM.

By MIC is commonly meant the least concentration at which growth counts as inhibited. Broadly, the IC50 is the concentration needed to halve the response being measured.
